Series [1] has as its system EGFR gene. Put plainly: Screening of SureKill guide RNAs in the EGFR gene for ability to induce indels. The class given is cell-based. Particulars: transfections of individual guide RNAs (spCas9 RNP); PDMR human lung adenocarcinoma cells with EGFR L858R; DECODR. On the procedure:
Human lung squamous cell carcinoma NCI-H1703 clone 44-25 cells were derived from NCI-H1703 cells (#CRL-5889) which were purchased from ATCC (Manassas, VA, USA). NCI-H1703 clone 44-25 cells contains R34G mutation (C 4 G) in NFE2L2 gene. H1703 clone 44-25 cells were cultured in ATCC formulation RPMI-1640 with 10% FBS. T75 flasks were used and cells were split 1:5 upon reaching 90% confluency. Human lung adenocarcinoma cells (Dist. Lot. No. LG0703-F948-PDC) were acquired from the National Institute of Health's National Cancer Institute's Patient-Derived Models Repository (PDMR). This PDMR cell line contains the L858R mutation (T 4 G) in the EGFR gene. The PDMR cells were maintained in Advanced DMEM/F12 media containing 10% FBS, 0.4 μg/mL hydrocortisone, 0.01 μg/mL EGF Recombinant Human Protein, 24 μg/mL adenine, and 2 mM L-Glutamine. T75s were used and cells were split 1:3 upon reaching 90% confluency. All cultures were maintained in cell culture incubators at 37° C. and 5% CO2.
Ribonucleoproteins (RNP) are complexed by incubating 250 pmol of purified synthetic gRNA (Synthego Corporation, Redwood City, CA) with 50 pmol of purified spCas9 (Synthego Corporation, Redwood City, CA) at room temperature in nuclease-free 1× TE buffer for 15 minutes.
Transfections were carried out using the Lonza Nuclefector 4d. Cultures in t75s at 90% confluence were split 1:2 24 hours prior to transfection. RNPs were complexed at 250:50 pmol for 30 minutes prior to transfection, during which time cells were harvested and counted. All reactions were 100 μL and contained 1 e6 cells. Lonza SF solution and Nucleofector program CM-130 were used in all transfections of the H1703 cell line. Lonza SE solution and Nucleofector program CA-137 were used in all transfections of the PDMR. After transfection, 500 μL of media that had been equilibrated to cell culture CO2 and temperature conditions was added to each 100 μL cuvettes. Cuvettes were then placed in the incubator. After 20 minutes, the entire content of each cuvette was seeded into 3 mL of media in a 6 well plate. After 72 hours, samples were dissociated using 200 μL Trypsin 0.25% for 5 minutes. 800 μL culture media was used to quench and split into 1.5 mL tubes each containing 500 μL of the sample. Tubes were spun at 300×g for 5 minutes. One of the tubes was placed in the −20° C. freezer and the other was resuspended in 500 μL of Trizol for RNA extraction and cDNA synthesis.
All sequencing was performed on the Applied Biosystems SeqStudio. The BigDye Terminator v3.1 Cycle Sequencing Kit was used to prepare samples for sequencing. Resulting sequences were analyzed with DECODR to determine indel rates (Bloh et al., CRISPR J. 4:120-31 (2021)).
Human EGFR is a frequently mutated gene that is associated with cancers. One of the most common mutations is L858R which results in the creation of a novel PAM site, making it a targetable sequence by CRISPR. Like the R34G mutation, the CRISPR designed to target the L858R mutation is not highly efficient on its own. By combining the L858R-targeting CRISPR with another CRISPR of high efficiency in a downstream intronic region, exon skipping can be induced, resulting in a higher efficiency of functional knockout than the L858R targeting CRISPR alone. To find a suitable gRNA to pair with the L858R targeting CRISPR, we selected the intron between exons 21 and 22 (FIG. 6). A series of gRNAs were created in this region and screened for their ability to induce indels, a measure of their activity using DECODR (Bloh et al., CRISPR J. 4:120-31 (2021)) (Table 3).
In Table 3, all sequences are listed from 5′ to 3′. Indel percent, a measure of CRISPR activity, is based on transfections of individual guide RNAs. All guide RNAs, with the exception of L858R, were designed in the intron between exons 21 and 22.

The test system of series [2] is EGFR. As to the kind of experiment: cDNA PCR analysis of exon skipping / full-size transcript in EGFR. The class given is cell-based, Human. Particulars: intron-targeting gRNA paired with L858R targeting CRISPR, compared to L858R targeting CRISPR alone. On the procedure: After CRISPR reactions, total RNA was prepared, and cDNA synthesized for PCR amplification of the target region from EGFR. PCR-amplified DNA was then analyzed by electrophoresis through a 1% agarose gel for 75 minutes at 80v. DNA was stained with SYBR Safe. Lanes 1 and 13: NEB 2 Log Ladder; Lane 2: Scrambled gRNA; Lane 3: EGFR 21-22 SureKill gRNA 11 alone; Lane 4: EGFR 21-22 SureKill gRNA 13 alone; Lane 5: EGFR 21-22 SureKill gRNA 16 alone; Lane 6: EGFR 21-22 SureKill gRNA 17 alone; Lane 7: EGFR 21-22 SureKill gRNA 19 alone; Lane 8: EGFR 21-22 SureKill gRNA 22 alone; Lane 9: EGFR 21-22 SureKill gRNA 23 alone; Lane 10: EGFR 21-22 SureKill gRNA 27 alone; Lane 11: EGFR 21-22 SureKill gRNA 28 alone; Lane 12: EGFR 21-22 SureKill gRNA 29 alone. On the left side of the image are markers indicating DNA size in bp.
After CRISPR reactions, total RNA was prepared, and cDNA synthesized for semi-quantitative PCR amplification of the target region from EGFR. PCR amplification was performed for 25 cycles. PCR-amplified DNA was then analyzed by electrophoresis through a 1% agarose gel for 75 minutes at 80v. DNA was stained with SYBR Safe. […]
Transfections were carried out using the Lonza Nuclefector 4d. […] RNPs were complexed at 250:50 pmol for 30 minutes prior to transfection, during which time cells were harvested and counted. […]

“EGFR 21-22 SureKill gRNA 28: EGFR intron 21-22 guide RNA GCAGCCTGGTCCCTGGTGTC, SEQ ID NO:51 (listed as DNA, chemistry not given here)” gave an indel % in series [1] of 97.6%. In addition, in series [2], the “reduction in the full-size transcript (cDNA, semi-quantitative PCR 25 cycles)” value is on record as “enhanced reduction in the full-size transcript”.

These data come from patent publication US12171813B2, “Methods of and compositions for reducing gene expression and/or activity” (Christiana Care Gene Editing Institute, Inc., priority 2021, dated 2024).
